Experimental data published in patent publication US20240409585A1, “MACROCYCLIC IMMUNOMODULATORS” (priority 2021, published 2024).
Bridge positions count the residues as written; N and C are the ends. Square brackets hold non-standard residues; d marks the D form. Peptide text beside a SMILES is read from it. Tyr(3-NO2) = N[C@@H](Cc1ccc(O)c([N+](=O)[O-])c1)C(=O)O; Bip = N[C@@H](Cc1ccc(-c2ccccc2)cc1)C(=O)O; d1Nal = N[C@H](Cc1cccc2ccccc12)C(=O)O; dBta = N[C@H](Cc1csc2ccccc12)C(=O)O; NMeA = CN[C@@H](C)C(=O)O; Orn = NCCC[C@H](N)C(=O)O; Dab = NCC[C@H](N)C(=O)O

biological target: T1, PE-labeled human PD-L1-Ig binding to Jurkat cell line over-expressing human PD-1 (Jurkat-PD-1) (Homo sapiens, UniProt Q15116); test: Jurkat-PD-1 Cell Binding High-Content Screening Assay (CBA): Method 1; details: Jurkat-hPD-1 cells, PE-labeled PD-L1-Ig 20 nM final; read-out: Jurkat HPDL1 PD1 IC50 (uM) (Method 1)
T1 construct: expressed in transfected cells; host or cells: Jurkat
T1 sequence (Q15116 25-288): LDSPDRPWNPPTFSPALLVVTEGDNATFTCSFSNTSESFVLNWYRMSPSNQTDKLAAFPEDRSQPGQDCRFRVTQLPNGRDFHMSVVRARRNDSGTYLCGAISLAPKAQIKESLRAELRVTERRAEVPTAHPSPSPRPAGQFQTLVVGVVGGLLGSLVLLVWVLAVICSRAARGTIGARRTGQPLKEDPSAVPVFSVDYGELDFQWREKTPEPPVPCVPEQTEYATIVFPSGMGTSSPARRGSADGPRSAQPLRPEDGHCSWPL

Compound | IC50
CC(C)C[C@@H]1NC(=O)[C@H](CCCN)NC(=O)[C@@H](Cc2csc3ccccc23)NC(=O)[C@H](C)N(C)C(=O)[C@H](CCCNC(=N)N)NC(=O)[C@H](Cc2ccc(-c3ccccc3)cc2)NC(=O)[C@H](C(C)C)NC(=O)[C@H](Cc2c[nH]c3ccccc23)NC(=O)[C@H](CC(=O)O)NC(=O)[C@H](Cc2ccc(O)cc2)NC(=O)[C@H](Cc2ccccc2)NC(=O)CSC[C@@H](C(=O)N[C@@H](C)C(N)=O)NC(=O)[C@H]([C@@H](C)O)NC(=O)[C@H](C(C)C)NC1=O [Compound 1171] ({CH2CO}-FYDWV[Bip]R[NMeA][dBta][Orn]LVTCA-NH2; thioether N-14) | 0.15 µM
CC(C)C[C@@H]1NC(=O)[C@H](CCN)NC(=O)[C@@H](CC(C)C)NC(=O)[C@H](C)N(C)C(=O)[C@H](CCCNC(=N)N)NC(=O)[C@H](Cc2ccc(-c3ccccc3)cc2)NC(=O)[C@H](C(C)C)NC(=O)[C@H](Cc2c[nH]c3ccccc23)NC(=O)[C@H](CC(=O)O)NC(=O)[C@H](Cc2ccc(O)cc2)NC(=O)[C@H](CC(N)=O)NC(=O)CSC[C@@H](C(=O)N[C@@H](CCC(=O)O)C(N)=O)NC(=O)[C@H]([C@@H](C)O)NC(=O)[C@H](C(C)C)NC1=O [Compound 1172] ({CH2CO}-NYDWV[Bip]R[NMeA][dL][Dab]LVTCE-NH2; thioether N-14) | 0.29 µM
CC(C)C[C@@H]1NC(=O)[C@H](CCCCN)NC(=O)[C@@H](CC(C)C)NC(=O)[C@H](C)N(C)C(=O)[C@H](CCCNC(=N)N)NC(=O)[C@H](Cc2ccc(-c3ccccc3)cc2)NC(=O)[C@H](C(C)C)NC(=O)[C@H](Cc2c[nH]c3ccccc23)NC(=O)[C@H](CC(=O)O)NC(=O)[C@H](Cc2ccc(O)cc2)NC(=O)[C@H](CC(N)=O)NC(=O)CSC[C@@H](C(=O)N[C@@H](CCC(=O)O)C(N)=O)NC(=O)[C@H]([C@@H](C)O)NC(=O)[C@H](C(C)C)NC1=O [Compound 1173] ({CH2CO}-NYDWV[Bip]R[NMeA][dL]KLVTCE-NH2; thioether N-14) | 0.22 µM
CC(C)C[C@@H]1NC(=O)[C@H](CCCN)NC(=O)[C@@H](CC(C)C)NC(=O)[C@H](C)N(C)C(=O)[C@H](CCCNC(=N)N)NC(=O)[C@H](Cc2ccc(-c3ccccc3)cc2)NC(=O)[C@H](C(C)C)NC(=O)[C@H](Cc2c[nH]c3ccccc23)NC(=O)[C@H](CC(=O)O)NC(=O)[C@H](Cc2ccc(O)cc2)NC(=O)[C@H](CC(N)=O)NC(=O)CSC[C@@H](C(=O)N[C@@H](CO)C(N)=O)NC(=O)[C@H]([C@@H](C)O)NC(=O)[C@H](C(C)C)NC1=O [Compound 1177] ({CH2CO}-NYDWV[Bip]R[NMeA][dL][Orn]LVTCS-NH2; thioether N-14) | 0.12 µM
CC(C)C[C@@H]1NC(=O)[C@H](CCCNC(=N)N)NC(=O)[C@@H](Cc2csc3ccccc23)NC(=O)[C@H](C)N(C)C(=O)[C@H](CCCNC(=N)N)NC(=O)[C@H](Cc2ccc(-c3ccccc3)cc2)NC(=O)[C@H](C(C)C)NC(=O)[C@H](Cc2c[nH]c3ccccc23)NC(=O)[C@H](CC(=O)O)NC(=O)[C@H](Cc2ccc(O)cc2)NC(=O)[C@H](Cc2ccccc2)NC(=O)CSC[C@@H](C(=O)N[C@@H](C)C(N)=O)NC(=O)[C@H]([C@@H](C)O)NC(=O)[C@H](C(C)C)NC1=O [Compound 1180] ({CH2CO}-FYDWV[Bip]R[NMeA][dBta]RLVTCA-NH2; thioether N-14) | 0.51 µM
CC(C)C[C@@H]1NC(=O)[C@H](CCCNC(=N)N)NC(=O)[C@@H](Cc2csc3ccccc23)NC(=O)[C@H](C)N(C)C(=O)[C@H](CCCNC(=N)N)NC(=O)[C@H](Cc2ccc(-c3ccccc3)cc2)NC(=O)[C@H](C(C)C)NC(=O)[C@H](Cc2c[nH]c3ccccc23)NC(=O)[C@H](CC(=O)O)NC(=O)[C@H](Cc2ccc(O)cc2)NC(=O)[C@H](CC(N)=O)NC(=O)CSC[C@@H](C(=O)N[C@@H](C)C(N)=O)NC(=O)[C@H]([C@@H](C)O)NC(=O)[C@H](C(C)C)NC1=O [Compound 1181] ({CH2CO}-NYDWV[Bip]R[NMeA][dBta]RLVTCA-NH2; thioether N-14) | 0.34 µM
CC(C)C[C@@H]1NC(=O)[C@H](CCCN)NC(=O)[C@@H](Cc2cccc3ccccc23)NC(=O)[C@H](C)N(C)C(=O)[C@H](CCCNC(=N)N)NC(=O)[C@H](Cc2ccc(-c3ccccc3)cc2)NC(=O)[C@H](C(C)C)NC(=O)[C@H](Cc2c[nH]c3ccccc23)NC(=O)[C@H](CC(=O)O)NC(=O)[C@H](Cc2ccc(O)cc2)NC(=O)[C@H](CC(N)=O)NC(=O)CSC[C@@H](C(=O)N[C@@H](C)C(N)=O)NC(=O)[C@H]([C@@H](C)O)NC(=O)[C@H](C(C)C)NC1=O [Compound 1182] ({CH2CO}-NYDWV[Bip]R[NMeA][d1Nal][Orn]LVTCA-NH2; thioether N-14) | 0.3 µM

More lines, now with the values ahead:

IC50 | Compound
0.1 µM | CC(C)C[C@@H]1NC(=O)[C@H](CCCNC(=N)N)NC(=O)[C@@H](Cc2ccccc2)NC(=O)[C@H](C)N(C)C(=O)[C@H](CCCNC(=N)N)NC(=O)[C@H](Cc2ccc(-c3ccccc3)cc2)NC(=O)[C@H](C(C)C)NC(=O)[C@H](Cc2c[nH]c3ccccc23)NC(=O)[C@H](CC(=O)O)NC(=O)[C@H](Cc2ccc(O)c([N+](=O)[O-])c2)NC(=O)[C@H](CC(N)=O)NC(=O)CSC[C@@H](C(=O)N[C@@H](C)C(N)=O)NC(=O)[C@H]([C@@H](C)O)NC(=O)[C@H](C(C)C)NC1=O [Compound 1167] ({CH2CO}-N[Tyr(3-NO2)]DWV[Bip]R[NMeA][dF]RLVTCA-NH2; thioether N-14)
0.12 µM | CC(C)C[C@@H]1NC(=O)[C@H](CCCCN)NC(=O)[C@@H](CC(C)C)NC(=O)[C@H](C)N(C)C(=O)[C@H](CCCNC(=N)N)NC(=O)[C@H](Cc2ccc(-c3ccccc3)cc2)NC(=O)[C@H](C(C)C)NC(=O)[C@H](Cc2c[nH]c3ccccc23)NC(=O)[C@H](CC(=O)O)NC(=O)[C@H](Cc2ccc(O)cc2)NC(=O)[C@H](Cc2ccccc2)NC(=O)CSC[C@@H](C(=O)N[C@@H](CCC(=O)O)C(N)=O)NC(=O)[C@H]([C@@H](C)O)NC(=O)[C@H](C(C)C)NC1=O [Compound 1168] ({CH2CO}-FYDWV[Bip]R[NMeA][dL]KLVTCE-NH2; thioether N-14)
0.05 µM | CC(C)C[C@@H]1NC(=O)[C@H](CCN)NC(=O)[C@@H](CC(C)C)NC(=O)[C@H](C)N(C)C(=O)[C@H](CCCNC(=N)N)NC(=O)[C@H](Cc2ccc(-c3ccccc3)cc2)NC(=O)[C@H](C(C)C)NC(=O)[C@H](Cc2c[nH]c3ccccc23)NC(=O)[C@H](CC(=O)O)NC(=O)[C@H](Cc2ccc(O)cc2)NC(=O)[C@H](Cc2ccccc2)NC(=O)CSC[C@@H](C(=O)N[C@H](C)C(N)=O)NC(=O)[C@H]([C@@H](C)O)NC(=O)[C@H](C(C)C)NC1=O [Compound 1170] ({CH2CO}-FYDWV[Bip]R[NMeA][dL][Dab]LVTC[dA]-NH2; thioether N-14)
0.06 µM | CC(C)C[C@@H]1NC(=O)[C@H](CCCCN)NC(=O)[C@@H](CC(C)C)NC(=O)[C@H](C)N(C)C(=O)[C@H](CCCNC(=N)N)NC(=O)[C@H](Cc2ccc(-c3ccccc3)cc2)NC(=O)[C@H](C(C)C)NC(=O)[C@H](Cc2c[nH]c3ccccc23)NC(=O)[C@H](CC(=O)O)NC(=O)[C@H](Cc2ccc(O)cc2)NC(=O)[C@H](CC(N)=O)NC(=O)CSC[C@@H](C(=O)N[C@@H](CO)C(N)=O)NC(=O)[C@H]([C@@H](C)O)NC(=O)[C@H](C(C)C)NC1=O [Compound 1174] ({CH2CO}-NYDWV[Bip]R[NMeA][dL]KLVTCS-NH2; thioether N-14)
0.12 µM | CC(C)C[C@@H]1NC(=O)[C@H](CCN)NC(=O)[C@@H](CC(C)C)NC(=O)[C@H](C)N(C)C(=O)[C@H](CCCNC(=N)N)NC(=O)[C@H](Cc2ccc(-c3ccccc3)cc2)NC(=O)[C@H](C(C)C)NC(=O)[C@H](Cc2c[nH]c3ccccc23)NC(=O)[C@H](CC(=O)O)NC(=O)[C@H](Cc2ccc(O)cc2)NC(=O)[C@H](Cc2ccccc2)NC(=O)CSC[C@@H](C(=O)N[C@@H](CCC(=O)O)C(N)=O)NC(=O)[C@H]([C@@H](C)O)NC(=O)[C@H](C(C)C)NC1=O [Compound 1175] ({CH2CO}-FYDWV[Bip]R[NMeA][dL][Dab]LVTCE-NH2; thioether N-14)
0.07 µM | CC(C)C[C@@H]1NC(=O)[C@H](CCCN)NC(=O)[C@@H](CC(C)C)NC(=O)[C@H](C)N(C)C(=O)[C@H](CCCNC(=N)N)NC(=O)[C@H](Cc2ccc(-c3ccccc3)cc2)NC(=O)[C@H](C(C)C)NC(=O)[C@H](Cc2c[nH]c3ccccc23)NC(=O)[C@H](CC(=O)O)NC(=O)[C@H](Cc2ccc(O)cc2)NC(=O)[C@H](Cc2ccccc2)NC(=O)CSC[C@@H](C(=O)N[C@@H](CO)C(N)=O)NC(=O)[C@H]([C@@H](C)O)NC(=O)[C@H](C(C)C)NC1=O [Compound 1176] ({CH2CO}-FYDWV[Bip]R[NMeA][dL][Orn]LVTCS-NH2; thioether N-14)
0.05 µM | CC(C)C[C@@H]1NC(=O)[C@H](CCN)NC(=O)[C@@H](CC(C)C)NC(=O)[C@H](C)N(C)C(=O)[C@H](CCCNC(=N)N)NC(=O)[C@H](Cc2ccc(-c3ccccc3)cc2)NC(=O)[C@H](C(C)C)NC(=O)[C@H](Cc2c[nH]c3ccccc23)NC(=O)[C@H](CC(=O)O)NC(=O)[C@H](Cc2ccc(O)cc2)NC(=O)[C@H](Cc2ccccc2)NC(=O)CSC[C@@H](C(=O)N[C@@H](CO)C(N)=O)NC(=O)[C@H]([C@@H](C)O)NC(=O)[C@H](C(C)C)NC1=O [Compound 1178] ({CH2CO}-FYDWV[Bip]R[NMeA][dL][Dab]LVTCS-NH2; thioether N-14)
0.07 µM | CC(C)C[C@@H]1NC(=O)[C@H](CCN)NC(=O)[C@@H](CC(C)C)NC(=O)[C@H](C)N(C)C(=O)[C@H](CCCNC(=N)N)NC(=O)[C@H](Cc2ccc(-c3ccccc3)cc2)NC(=O)[C@H](C(C)C)NC(=O)[C@H](Cc2c[nH]c3ccccc23)NC(=O)[C@H](CC(=O)O)NC(=O)[C@H](Cc2ccc(O)cc2)NC(=O)[C@H](CC(N)=O)NC(=O)CSC[C@@H](C(=O)N[C@@H](CO)C(N)=O)NC(=O)[C@H]([C@@H](C)O)NC(=O)[C@H](C(C)C)NC1=O [Compound 1179] ({CH2CO}-NYDWV[Bip]R[NMeA][dL][Dab]LVTCS-NH2; thioether N-14)
